Columns and labels:
[1] = system: host cells producing fusion protein (CTLA4Ig); assay: Fed-batch bioreactor (Ambr250) cell culture for fusion protein (CTLA4Ig) production, control process spiked with Mito-TEMPO; format: cell-based
Description: (§1) The cell bank vial was thawed in Shake flask 125 (SF125) into the seed media and cell counts were checked. The incubation was continued for 3-5 days during which cells reached the optimum cell density for subculture. The cells were subsequently expanded in Shake flask 500 (SF500) to generate sufficient inoculum for Ambr®250 bioreactors (250 mL).
Production Fed batch bioreactor run was executed at Ambr®250 bioreactor using process parameters as mentioned below.
The standard fed-batch culture process involved cell culturing for 12 days and was harvested depending upon the culture cell viability.
(§2) When the control process was spiked with antioxidant Mito Tempo (total 25 nM added throughout the culturing period) 5 nM each on day 3, 5, 7, 9, 11. It was observed that the harvested protein titer was improved by 28% when analysed by Protein-A HPLC method. It was also observed that overall oxidation of the product was decreased by 18% when analysed by LC-MS method. The overall peak viable cell density of the culture was also found to have increased by 11%.

[2] = system: host cells producing antibody; assay: Fed-batch bioreactor (Ambr250) cell culture for antibody production, control process spiked with MitoTempo; format: cell-based; settings: total 25 nM, 5 nM each on day 3, 5, 7, 9, 11
Description: as §1, with “is” for “was”, “are” for “were”
Production Fed batch bioreactor run is executed at Ambr®250 bioreactor using process parameters as mentioned below.
The standard fed-batch culture process involved cell culturing for 12 days and it is harvested depending upon the culture cell viability.
as §2, with “is” for “was”, “MitoTempo” for “Mito Tempo”, “improved” for “improved by 28%”, “decreased” for “decreased by 18%”, “increased.” for “increased by 11%.”

[3] = CTLA4Ig culture, total 25 nM, 5 nM each on day 3, 5, 7, 9, 11
[4] = CTLA4Ig fed-batch culture, 12 days, 5 nM each on Day 3, 5, 7, 9, 11 (total 25 nM)

Structure (SMILES): CC1(C)CC(NC(=O)C[P+](c2ccccc2)(c2ccccc2)c2ccccc2)CC(C)(C)N1[O] [MitoTempo, Mito-TEMPO]
- harvested protein titer improved (Protein-A HPLC) versus control process [1, 3]: 28%
- overall oxidation of the product decreased (LC-MS) versus control process [1, 3]: 18%
- overall peak viable cell density increased versus control process [1, 3]: 11%
- Harvest Oxidation (%) by LC-MS [1, 4]: 12.2%
- Harvest Titer by Protein-A HPLC [1, 4]: 2.7 g/L
- Peak cell density by Automated cell counter [1, 4]: 18.8 ×10^6 cells/mL
- harvested protein titer (Protein-A HPLC) versus control process [2]: improved
- overall oxidation of the product (LC-MS) versus control process [2]: decreased
- overall peak viable cell density of the culture versus control process [2]: increased

From patent publication US20250136931A1, “AN IMPROVED CELL CULTURE PROCESS FOR PRODUCTION OF PROTEIN” (KASHIV BIOSCIENCES, LLC, priority 2022, published 2025)
